Experimental data reported in PubChem BioAssay AID179 (DTP/NCI, 2004).
Values joined by “and” are separate entries in the source; they are usually repeats but may differ in a detail not shown here. Equal values may be shown once. Active and inactive are the calls of the source.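 How the source made its calls: active means compounds giving half or more protection of infected cells from virus-caused growth loss, again on retest; inactive means the rest.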

Tested on: CEM cells HIV-1 protection, formazan growth assay
Assay: NCI AIDS Antiviral Assay
Settings: for IC50: measured here: growth of uninfected CEM cells
Summary of the method: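 Screen of anti-HIV-1 activity in human CEM cells using a formazan-based growth measurement at five drug concentrations. Hits with 50% or greater protection were repeated, and confirmation required reproducible complete protection.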

Structure (SMILES) | EC50 | IC50 [µM] | outcome
Nc1ncnc2c1ncn2[C@H]1CC[C@]2(CO)C[C@H]12 | > 25.1 µM | > 25.1 | –
COC(=O)c1c([N+](=O)[O-])ncn1[C@H]1OC[C@@H](OC(C)=O)[C@@H](OC(C)=O)[C@@H]1OC(C)=O | > 200 µM | > 200 | –
OC[C@@H]1CC#C/C=C\C#CC[C@@H]1CO | – | – | inactive
O=C(/C=C\c1ccccc1)c1ccc(-c2cccc(-c3ccccc3)c2)cc1 | > 200 µM | 110 | –
CC(O)CCCOC(c1ccccc1)(c1ccccc1)c1ccccc1 (stereo not drawn) | > 38.9 µM | > 38.9 | –
CC(NCCCCNC(C)C(=O)O)C(=O)O (stereo not drawn) | > 631 µM | > 631 | –
CC(=O)N[C@@H]1C(O)CN2C(=O)C(=O)O[C@H](C(O)CO)[C@@H]12 (stereo partly drawn) | – | – | inactive
CC1=NNC(=S)NCCCN2CCN(CCCNC(=S)NN=C(C)C=NNC(=S)NCCCN3CCN(CCCNC(=S)NN=C1)CC3)CC2 | > 123 µM | > 123 | –
O=C1Cc2c([nH]c3ccc(Br)cc23)-c2ccccc2N1 | > 200 µM | 2.95 | –
Clc1cccc2c(N3CC3)cnnc12 | – | – | inactive
N#CC1=C(O)NC(O)=C(C#N)C1c1c(Cl)cccc1Cl | > 427 µM | 27.5 | –
O=C(O)CCC(=O)NC(c1ccccc1)c1ccccc1 | > 200 µM | > 200 | –
C[As+](C)(C)CC1OC(OCC(O)COS(=O)(=O)[O-])C(O)C1O (stereo not drawn) | – | – | inactive
COC(=O)C(C(=O)C(=O)Nc1c(C)cccc1C)c1cnc2ccccc2n1 (stereo not drawn) | > 50.1 µM | > 50.1 | –
C[N+](C)(C)CC(=O)N/N=C(\C(=O)NC1=C(Cl)C(=O)c2ccccc2C1=O)C(C#N)c1nc(-c2ccc([N+](=O)[O-])cc2)cs1 (stereo not drawn) | – | – | inactive
COc1ccc2oc(C(=O)O)c3c2c1CCC3CCC(=O)O (stereo not drawn) | – | – | inactive
CCN(CC)C(=O)C(C)n1cc(C)c(=O)[nH]c1=O (stereo not drawn) | > 977 µM | > 977 | –
C[N+](C)(C)CCOP(=O)(O)OP(=O)([O-])OCC1CCC(n2ccc(N)nc2=O)O1 (stereo not drawn) | 0.575 µM and 0.178 µM | > 200 | –
CC(O)CC(O)(C(F)(F)F)C(F)(F)F (stereo not drawn) | > 200 µM | > 200 | –
Nn1c(Cc2ccccc2)nnc1Cc1ccccc1 | > 200 µM | > 200 | –
CN1C(=O)N(C)C2SC(=NCc3ccccc3)NN2C1=O (stereo not drawn) | > 85.1 µM | 81.3 | –
N#Cc1cc2c(n(C3OC(CO)C(O)C(O)C3O)c1=S)CCCCCC2 (stereo not drawn) | > 200 µM | > 200 | –
COC(=O)C1(Cc2ccc3c(c2)CCC3)Cc2ccccc2C1=O (stereo not drawn) | > 200 µM | 10.7 | –

Structure (SMILES) | EC50 | IC50 [µM] | outcome
O=C(CC1(O)C(=O)Nc2c(Cl)cc(Cl)cc21)c1cccc2ccccc12 (stereo not drawn) | > 67.6 µM | > 67.6 | –
O=C(O)CN(c1ccccc1)S(=O)(=O)c1ccc(Cl)cc1 | – | – | inactive
CNN1C(=O)c2c(C)c(C)c(C#N)c(N)c2C1=O | > 200 µM | > 200 | –
O=C1NC(c2ccc(O)cc2)C2CCC1C2 (stereo not drawn) | > 1150 µM | 955 | –
CC12CP(=O)(c3ccccc3)CC1c1ccccc1C2c1ccccc1 (stereo not drawn) | > 200 µM | 31.6 | –
CC(Oc1ccc2c(-c3ccccc3)cc(=O)oc2c1)C(=O)O (stereo not drawn) | – | – | inactive
CCOc1ccc2nc3nc(=O)[nH]c(C)c3c(NCCCN(CC)CC)c2c1 | > 200 µM | > 200 | –
COc1ccc2c(c1)N(C(C)=O)CN1C(=O)CCC21 (stereo not drawn) | – | – | inactive
NC(=O)c1ccc(NN=O)nc1 | > 200 µM | > 200 | –
O=C1/C(=C\c2ccc(Br)cc2)CCCc2ccccc21 | > 200 µM | 22.4 | –
C[Si](C)(/C=C(\Br)CCOC1CCCCO1)c1ccccc1 (stereo not drawn) | – | – | inactive
O=C1CC(C(O)(C(F)(F)F)C(F)(F)Cl)CCC1C(O)(C(F)(F)F)C(F)(F)Cl (stereo not drawn) | – | – | inactive
CCCN1CN(C(C(=O)N[C@@H]2C(=O)N3C2SC(C)(C)C3C(=O)O)c2ccc(O)cc2)CSC1=S (stereo partly drawn) | > 479 µM | 145 | –
CC1(C)CCC2=C(C1)Nc1ccc(Cl)cc1NC2c1ccc([N+](=O)[O-])cc1 (stereo not drawn) | > 200 µM | 24.5 | –
Cc1ccc(NC(=O)SCCC(=O)O)cc1NC(=O)SCCC(=O)O | – | – | inactive
S=C1SCN(C2CCCCCCCCCCC2)CN1C1CCCCCCCCCCC1 | – | – | inactive
COc1cc2c3c(c1OC)-c1ccccc1C(C(O)c1ccccc1)C3N(C)CC2 (stereo not drawn) | – | – | inactive
O=c1c2ccccc2[se]n1-c1cccnc1 | 7.94 µM | 36.3 | –
O=C1C=CC(=O)c2c(O)cccc21 | – | – | inactive
COc1ccc(N2C(=O)C3c4[nH]c5cccc(C)c5c4C4CCC(C(C)(C)C)CC4C3C2=O)cc1 (stereo not drawn) | > 200 µM | 89.1 | –
CCN(CC)CCC(=O)c1ccc(C)cc1 | > 6170 µM | 331 | –
C#CCOCn1cc(C)c(=O)[nH]c1=O | > 200 µM | > 200 | –
COc1ccc(OCC(=O)O)c(C(=O)CCC(=O)O)c1 | – | – | inactive

Structure (SMILES) | EC50 | IC50 [µM] | outcome
C[C@]12CCc3nonc3C1CC[C@@H]1C2CC[C@]2(C)NC(=O)CCC12 (stereo partly drawn) | > 51.3 µM | > 51.3 | –
C[N+](C)(C)C1(C(=O)[O-])CC1 | > 200 µM | > 200 | –
CCOP(=O)(OCC)/C(C#N)=C/c1coc2cc(C)cc(C)c2c1=O | > 200 µM | > 200 | –
Cc1cc2c(cc1C)NC(C)CC(=O)N2 (stereo not drawn) | > 200 µM | > 200 | –
CN(C)CC[PH+](c1ccccc1)c1ccccc1.CN(C)CC[PH+](c1ccccc1)c1ccccc1.[Cl-].[Pd+2] | > 200 µM | > 200 | –
Cc1ccc2cc1NC(=O)N1CCN(CC1)C(=O)Nc1cc(ccc1C)NC(=O)N1CCN(CC1)C(=O)N2 | > 3.8 µM | > 3.8 | –
C=CC[C@]12CC(OC)C(OC)CC1(OC)O[C@@H](c1cc(OC)c(OC)c(OC)c1)[C@H]2C (stereo partly drawn) | > 200 µM | 155 | –
COc1ccc(CSc2ccccc2Cn2cccc2)cc1OC | – | – | inactive
COc1ccc(OCc2nc3ccccc3[nH]2)cc1 | > 200 µM | > 200 | –
c1ccc2c(c1)C(=NCCCN1CCCCCCC1)c1cccn1-2 | > 200 µM | 47.9 | –
C=C1[C@H]2CCC3(CC[C@H]4C5(CCC[C@@]4(C)C(=O)N(CCO)C5)[C@@H]3C2)[C@@H]1O | – | – | inactive
O=S(=O)(O)NC1CCCCC1 | > 200 µM | > 200 | –
CC(C)(C)c1cc(C(C)(C)C)c(P=C(Cl)Cl)c(C(C)(C)C)c1 (stereo not drawn) | > 100 µM | > 100 | –
CC1(C)OC[C@@H]([C@H](C=O)OCc2ccccc2)O1 | > 200 µM | > 200 | –
COC(=O)c1ccc(N=NN(C)COc2ccc(C#N)cc2)cc1 | > 200 µM | 81.3 | –
COc1ccccc1C1OC(c2ccccc2OC)C2CCN(C)C2(C)O1 (stereo not drawn) | > 200 µM | > 200 | –
N#CC(C#N)=Cc1ccc(Cl)cc1 | > 72.4 µM | 66.1 | –
Cc1cccc(CC(=O)c2ccccc2)n1 | > 200 µM | 53.7 | –
CC(CCC(=O)O)[C@H]1CCC2[C@H]3C(CC(=O)[C@@]21C)[C@@]1(C)CCC(O)C[C@H]1C[C@@H]3O (stereo partly drawn) | > 200 µM | > 200 | –
COc1ccc([N+](=O)[O-])c2c(NCCCN(C)C)ccnc12 | > 200 µM | 4.47 | –
CNC(=S)/C(=N\Nc1nc[nH]c1C(N)=O)C(N)=S | > 2 µM | 0.955 | –
CC1=CC(=O)NCCN1C | 138 µM | 1780 | –
CC1(C)CC(=O)c2c(nc3c(ccc4ccccc43)c2-c2ccc(NC(=O)CCC(=O)Nc3ccc(-c4c5c(nc6c4ccc4ccccc46)CC(C)(C)CC5=O)cc3)cc2)C1 | > 100 µM | > 100 | –

Structure (SMILES) | EC50 | IC50 [µM] | outcome
O=C(ON=C1c2ccccc2C(Br)C(Br)c2ccccc21)c1ccccc1 (stereo not drawn) | > 200 µM | 3.31 | –
CCCCCC1=CC(=O)C1(Cl)Cl | > 200 µM | 27.5 | –
OC[C@H]1CCCC1O (stereo partly drawn) | – | – | inactive
COC(=O)C1C(=O)C(C(=O)OC)C2CCC1N2C (stereo not drawn) | > 200 µM | 42.7 | –
CCCC[P+](c1ccccc1)(c1ccccc1)c1ccccc1 | > 200 µM | 2.57 | –
COc1cc(N(CCC#N)CCC#N)ccc1/C(N=Nc1ccc([N+](=O)[O-])cc1)=N/NC(=O)c1cc(Br)ccc1O | > 200 µM | 33.1 | –
COc1ccc(C(=O)NO)cc1 | > 200 µM | 25.1 | –
O=C1C2c3[nH]c4ccccc4c3C3CCCC3C2C(=O)N1c1ccccc1 (stereo not drawn) | – | – | inactive
Cc1cccc(C(C)C)c1N1C(=O)C(=O)C(c2nc3ccccc3o2)C(=O)C1=O | > 13.5 µM | > 13.5 | –
CC(=O)C1=CN=C2C(=O)N(c3ccccc3)N(C)C12C (stereo not drawn) | > 200 µM | > 200 | –
Cc1c(C(=O)CSc2nc3ccc([N+](=O)[O-])cc3[nH]2)c(=O)n(-c2ccccc2)n1C | > 17 µM | > 17 | –
S=C(Nc1ccccc1)Nc1[nH]c(=S)sc1-c1nc2ccccc2[nH]1 | > 1.86 µM | > 1.86 | –
COc1ccc(C(=O)N2CCc3c([nH]c4ccccc34)C2C(=O)O)o1 (stereo not drawn) | > 39.8 µM | 17.4 | –
CC(=O)OC1C(CCl)OC(N=[N+]=[N-])C(OC(C)=O)C1OC(C)=O (stereo not drawn) | – | – | inactive
COc1cc(N=Nc2ccccc2)cc(/C=N/NC(N)=S)c1[O-].[CH2-]/[N+](=C\c1cc(N=Nc2ccccc2)cc(OC)c1[O-])NC(N)=S.[O]=[Mo+2]=[O].[O]=[Mo]=[O] | > 38.9 µM | 5.25 | –
CC(C)=CC[C@]12CCN(C)[C@H]1N(S(=O)(=O)c1ccccc1)c1ccccc12 | > 200 µM | 135 | –
CC1C(c2ccc3c(c2)OCO3)c2cc3c(cc2OC1N1CCCC1)OCO3 (stereo not drawn) | > 100 µM | 47.9 | –
CN(C)CCOc1ccc(-c2c(Oc3ccccc3)c(=O)oc3ccccc23)cc1 | > 200 µM | 8.71 | –
CCCC/C=C/C/C=C/CCCCCCCCC(=O)OCC1CCCN2CCCCC12 (stereo not drawn) | > 200 µM | 7.94 | –
COC1OC2COc3ccccc3OC2C2C1N2C(N)=O (stereo not drawn) | – | – | inactive
O=C(NNC(=S)NC1CC(c2ccccc2)Oc2ccccc21)c1ccccc1 (stereo not drawn) | – | – | inactive
CCCCCCCCCCCCCCCC(=O)NCC(COP(=O)([O-])OCC[N+](C)(C)C)OC (stereo not drawn) | – | – | inactive
